# System: Meloidogyne incognita
# Test: Meloidogyne incognita test (MELGIN): sand, salad seeds, gall formation after 14 days
# Format: in vivo
# Details: application rate 20 ppm, salad seedlings in sand
# Procedure: Solvent: 125.0 parts by weight of acetone To produce a suitable preparation of active compound, 1 part by weight of active compound is mixed with the stated amount of solvent, and the concentrate is diluted with water to the desired concentration. Vessels are filled with sand, a solution of the active ingredient, a suspension containing eggs and larvae of the southern root-knot nematode (Meloidogyne incognita) and salad seeds. The salad seeds germinate and the seedlings grow. Galls develop in the roots. After 14 days the nematicidal activity is determined on the basis of the percentage of gall formation. 100% means that no galls were found; 0% means that the number of galls found on the roots of the treated plants was equal to that in untreated control plants.
row,SMILES,nematicidal activity on the basis of the percentage of gall formation (100% = no galls) [%]
1,O=C(NS(=O)(=O)c1cccc(Cl)c1Cl)c1cn2cc(C(F)(F)C(F)(F)F)sc2n1 [Example I-1-236],100
2,O=C(NS(=O)(=O)c1cc(Cl)ccc1Cl)c1cn2cc(C(F)(F)C(F)(F)F)sc2n1 [Example I-1-145],100
3,COc1ccc(Cl)c(S(=O)(=O)NC(=O)c2nc3sc(C(F)(F)F)cn3c2Cl)c1 [Example I-3-4],100
4,O=C(NS(=O)(=O)c1cccc(Cl)c1)c1cn2cc(C(F)(F)C(F)(F)F)sc2n1 [Example I-1-143],90
5,CSc1ccc(Cl)c(S(=O)(=O)NC(=O)c2cn3cc(C(F)(F)F)sc3n2)c1 [Example I-1-308],100
6,O=C(NS(=O)(=O)c1ccccc1OC(F)(F)F)c1cn2cc(C(F)(F)C(F)(F)F)sc2n1 [Example I-1-234],100
7,Cc1ccc(C)c(S(=O)(=O)NC(=O)c2cn3cc(Cl)sc3n2)c1 [Example I-1-22],100
8,Cc1ccc(OC(F)F)cc1S(=O)(=O)NC(=O)c1cn2cc(C(F)(F)F)sc2n1 [Example I-1-7],90
9,Cc1ccc(OC(F)F)c(S(=O)(=O)NC(=O)c2cn3cc(C(F)(F)F)sc3n2)c1 [Example I-1-314],90
10,N#Cc1ccc(Cl)c(S(=O)(=O)NC(=O)c2cn3cc(C(F)(F)F)sc3n2)c1 [Example I-1-310],90
11,O=C(NS(=O)(=O)c1cccc(Cl)c1)c1cn2cc(Cl)sc2n1 [Example I-1-50],100
12,O=C(NS(=O)(=O)c1ccc(Cl)cc1)c1cn2cc(Cl)sc2n1 [Example I-1-51],100
13,CCc1ccc(Cl)cc1S(=O)(=O)NC(=O)c1cn2cc(C(F)(F)F)sc2n1 [Example I-1-309],100
14,O=C(NS(=O)(=O)c1cc(Cl)ccc1Cl)c1cn2cc(C(F)(F)F)sc2n1 [Example I-1-6],100
15,COc1ccc(Cl)c(S(=O)(=O)NC(=O)c2cn3c(C(F)(F)F)csc3n2)c1 [Example I-1-29],90
16,CC(C)(C)c1cn2cc(C(=O)NS(=O)(=O)c3ccccc3Cl)nc2s1 [Example I-1-16],100
17,Cc1ccc(C(C)(C)C)cc1S(=O)(=O)NC(=O)c1cn2cc(C(F)(F)C(F)(F)F)sc2n1 [Example I-1-233],100
18,O=C(NS(=O)(=O)c1ccccc1Cl)c1cn2cc(Cl)sc2n1 [Example I-1-17],100
19,Cc1c(C(F)(F)F)sc2nc(C(=O)NS(=O)(=O)c3cccc(Cl)c3)cn12 [Example I-1-155],100
20,CCc1ccc(CC)c(S(=O)(=O)NC(=O)c2cn3cc(C(F)(F)F)sc3n2)c1 [Example I-1-305],100
21,O=C(NS(=O)(=O)c1ccccc1Cl)c1nc2sc(C(F)(F)F)cn2c1Cl [Example I-3-3],100
22,CSc1cn2cc(C(=O)NS(=O)(=O)c3ccccc3Cl)nc2s1 [Example I-1-298],100

row,SMILES,nematicidal activity on the basis of the percentage of gall formation (100% = no galls) [%]
1,O=C(NS(=O)(=O)c1c(F)cccc1F)c1cn2cc(C(F)(F)F)sc2n1 [Example I-1-11],100
2,COc1ccc(Cl)c(S(=O)(=O)NC(=O)c2cn3cc(C(C)(C)C)sc3n2)c1 [Example I-1-23],100
3,O=C(NS(=O)(=O)c1ccccc1Cl)c1cn2nc(C(F)(F)F)sc2n1 [Example I-1-202],90
4,O=C(NS(=O)(=O)c1ccc(Cl)cc1Cl)c1cn2cc(C(F)(F)C(F)(F)F)sc2n1 [Example I-1-224],100
5,O=C(NS(=O)(=O)c1cc(Cl)ccc1Cl)c1cn2cc(Cl)sc2n1 [Example I-1-18],90
6,CC(=O)c1ccc(Cl)c(S(=O)(=O)NC(=O)c2cn3c(C)c(C(F)(F)F)sc3n2)c1 [Example I-1-302],100
7,Cc1c(Cl)ccc(S(=O)(=O)NC(=O)c2cn3cc(C(F)(F)F)sc3n2)c1C [Example I-1-307],100
8,O=C(NS(=O)(=O)c1cccc(Cl)c1)c1cn2cc(C(F)(F)F)sc2n1 [Example I-1-272],90
9,CCCOc1ccc(Cl)c(S(=O)(=O)NC(=O)c2cn3cc(C(F)(F)C(F)(F)F)sc3n2)c1 [Example I-1-238],100
10,O=C(NS(=O)(=O)c1cc(Cn2cccn2)ccc1Cl)c1cn2cc(C(F)(F)C(F)(F)F)sc2n1 [Example I-1-292],100
11,CC(C)(C)c1cn2cc(C(=O)NS(=O)(=O)c3c(Cl)cccc3Cl)nc2s1 [Example I-1-13],100
12,O=C(NS(=O)(=O)c1ccccc1OC(F)(F)F)c1cn2cc(C(F)(F)F)sc2n1 [Example I-1-281],90
13,COc1ccc(Cl)c(S(=O)(=O)NC(=O)c2nc3sc(C(F)(F)F)cn3c2I)c1 [Example I-3-6],100
14,O=C(NS(=O)(=O)c1ccccc1Cl)c1nc2sc(C(F)(F)F)cn2c1I [Example I-3-5],100
15,COc1ccc(Cl)c(S(=O)(=O)NC(=O)c2cn3cc(Br)sc3n2)c1 [Example I-1-60],100
16,O=C(NS(=O)(=O)c1ccc(Cl)cc1)c1cn2cc(C(F)(F)C(F)(F)F)sc2n1 [Example I-1-144],90
17,CC(=O)c1ccc(Cl)c(S(=O)(=O)NC(=O)c2cn3cc(C(F)(F)F)sc3n2)c1 [Example I-1-301],100
18,Cc1cc(S(=O)(=O)NC(=O)c2cn3cc(Cl)sc3n2)c(C)cc1C#N [Example I-1-45],100
19,O=C(NS(=O)(=O)c1ccc(Br)c(Cn2cccn2)c1)c1cn2cc(C(F)(F)C(F)(F)F)sc2n1 [Example I-1-293],100
20,O=C(NS(=O)(=O)c1ccccc1F)c1cn2cc(C(F)(F)F)sc2n1 [Example I-1-212],100
21,CCCOc1ccc(Cl)cc1S(=O)(=O)NC(=O)c1cn2cc(C(F)(F)F)sc2n1 [Example I-1-313],100
22,O=C(NS(=O)(=O)c1c(Cl)cccc1Cl)c1cn2cc(Cl)sc2n1 [Example I-1-43],100
